Results as given in US8796256B2 (Janssen Pharmaceutica NV, priority 2010, dated 2014).
pEC50: −log10 of the molar value. Like-named read-outs stand apart in the source and are kept apart here. One block for each compound: values may come before it.

How the values were obtained:
Zucker fa/fa male rats = assay: Zucker fa/fa Rat Model Assay; type: in vivo; conditions: po, 120 h, 10 mg/kg orally once a day for 4 days
From the text: Zucker fa/fa is a monogenic model of frank diabetes due to a mutation on the fa gene truncating the leptin receptor and preventing its interaction with its peptide hormone. This mutation results in a hyperphagic phenotype and the rodent develops obesity, hyperlipidemia, fasting hyperglycemia and insulin resistance. Zucker fa/fa male rats were received at four weeks of age and allowed to acclimate for one week. At five weeks of age the animals were single housed in cages in a temperature-controlled room with 12-hour light/dark cycle. The rats were allowed ad libitum access to water and food and throughout the study were maintained on a Purina 5008 diet. Animals were sorted based primarily on fed insulin levels and circulating triglycerides. Animals were dosed orally once a day (10 mg/kg) in the morning for 4 days. The vehicle used was either 20% HPβCD (Hydroxypropyl Beta Cyclodextrin) or 15% Vitamin E/30% PEG-400 (Polyethylene Glycol 400). Fed insulin and triglycerides were measured using blood collected from the tail vein at day 5. Serum plasma samples were prepared by centrifugation in EDTA (Ethylenediaminetetraacetic acid) containing tubes, transferred into 96 well plates and stored at −80° C.

[1] = biological target: T1, ERR1 (also known as ERR-α or ERR-1) (Homo sapiens, UniProt P11474); assay: TR-FRET assay (disruption of co-activator peptide binding to ERR1 LBD); type: biochemical; conditions: 6 nM 6His-ERR1LBD, 6 nM GST-SRC-2 peptide; average of 3 independent experiments
T1 sequence (P11474 193-421 limits assumed): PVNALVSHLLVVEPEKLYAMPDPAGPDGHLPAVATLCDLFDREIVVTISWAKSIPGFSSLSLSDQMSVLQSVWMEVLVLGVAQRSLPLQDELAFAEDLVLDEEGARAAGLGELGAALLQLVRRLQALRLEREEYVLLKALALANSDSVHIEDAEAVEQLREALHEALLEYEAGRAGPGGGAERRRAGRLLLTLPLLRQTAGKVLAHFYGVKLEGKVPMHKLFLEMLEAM
In short: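 Homogeneous TR-FRET measuring displacement of GST-hSRC2 co-activator peptide (6 nM) from His-tagged ERR1 LBD (6 nM), detected with α-GST Eu cryptate (30 nM) and α-His-XL665 (7.5 nM). Buffer 25 mM Tris pH 8, 2.5 mM Hepes, 20 mM KCl, 1 mM DTT, 0.05 mg/mL delipidated BSA; equilibration 4-18 h at 25° C. Hyperbolic dose-response fit, mean of 3 experiments.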

[2] = blood from tail vein at day 5, read-out: % Change Fed Insulin Levels
[3] = blood from tail vein at day 5, read-out: % Change Fed Triglyceride Levels

pEC50 [1]: 7.60
Structure (SMILES): CN1CC[C@H](N2C(=O)S/C(=C\c3ccc4c(cnn4Cc4ccc(Cl)cc4C(F)(F)F)c3)C2=O)C1 [Compound 143, (5Z)-5-({1-[4-Chloro-2-(trifluoromethyl)benzyl]-1H-indazol-5-yl}methylidene)-3-[(3S)-1-methylpyrrolidin-3-yl]-1,3-thiazolidine-2,4-dione]
change in vivo at 10 mg/kg (Zucker fa/fa male rats; [2]): -49% | change in vivo at 10 mg/kg (Zucker fa/fa male rats; [3]): -29%

pEC50 [1]: 7.59
Structure (SMILES): CS(=O)(=O)CCN1CCC(N2C(=O)S/C(=C\c3ccc4c(cnn4Cc4ccc(Cl)cc4C(F)(F)F)c3)C2=O)CC1 [Compound 149, (5Z)-5-({1-[4-Chloro-2-(trifluoromethyl)benzyl]-1H-indazol-5-yl}methylidene)-3-{1-[2-(methylsulfonyl)ethyl]piperidin-4-yl}-1,3-thiazolidine-2,4-dione]
change in vivo at 10 mg/kg (Zucker fa/fa male rats; [2]): -35% | change in vivo at 10 mg/kg (Zucker fa/fa male rats; [3]): 10%

pEC50 [1]: 7.62
Structure (SMILES): C[C@H](N)CN1C(=O)S/C(=C\c2ccc3c(cnn3Cc3ccc(Cl)cc3C(F)(F)F)c2)C1=O [Compound 155, 3-[(2S)-2-Aminopropyl]-(5Z)-5-({1-[4-chloro-2-(trifluoromethyl)benzyl]-1H-indazol-5-yl}methylidene)-1,3-thiazolidine-2,4-dione]
change in vivo at 10 mg/kg (Zucker fa/fa male rats; [2]): -60% | change in vivo at 10 mg/kg (Zucker fa/fa male rats; [3]): -55%

pEC50 [1]: 8.10
Structure (SMILES): CC(=O)NS(=O)(=O)CN1C(=O)S/C(=C\c2ccc3c(cnn3Cc3ccc(Cl)cc3C(F)(F)F)c2)C1=O [Compound 166, N-({[(5Z)-5-({1-[4-Chloro-2-(trifluoromethyl)benzyl]-1H-indazol-5-yl}methylidene)-2,4-dioxo-1,3-thiazolidin-3-yl]methyl}sulfonyl)acetamide]
change in vivo at 10 mg/kg (Zucker fa/fa male rats; [2]): -58% | change in vivo at 10 mg/kg (Zucker fa/fa male rats; [3]): -37%

pEC50 [1]: 7.64
Structure (SMILES): N[C@@H](CO)CN1C(=O)S/C(=C\c2ccc3c(cnn3Cc3ccc(Cl)cc3C(F)(F)F)c2)C1=O [Compound 167, (5Z)-3-[(2R)-2-Amino-3-hydroxypropyl]-5-({1-[4-chloro-2-(trifluoromethyl)benzyl]-1H-indazol-5-yl}methylidene)-1,3-thiazolidine-2,4-dione]
change in vivo at 10 mg/kg (Zucker fa/fa male rats; [2]): -33% | change in vivo at 10 mg/kg (Zucker fa/fa male rats; [3]): -45%

pEC50 [1]: 7.80
Structure (SMILES): O=C1S/C(=C\c2ccc3c(cnn3Cc3ccc(Cl)cc3C(F)(F)F)c2)C(=O)N1O [Compound 288, (5Z)-5-({1-[4-Chloro-2-(trifluoromethyl)benzyl]-1H-indazol-5-yl}methylidene)-3-hydroxy-1,3-thiazolidine-2,4-dione]
change in vivo at 10 mg/kg (Zucker fa/fa male rats; [2]): -35% | change in vivo at 10 mg/kg (Zucker fa/fa male rats; [3]): -29%

pEC50 [1]: 7.89
Structure (SMILES): CS(=O)(=O)NN1C(=O)S/C(=C\c2ccc3c(cnn3Cc3ccc(Cl)cc3C(F)(F)F)c2)C1=O [Compound 361, N-[(5Z)-5-({1-[4-Chloro-2-(trifluoromethyl)benzyl]-1H-indazol-5-yl}methylidene)-2,4-dioxo-1,3-thiazolidin-3-yl]methanesulfonamide]
change in vivo at 10 mg/kg (Zucker fa/fa male rats; [2]): -58% | change in vivo at 10 mg/kg (Zucker fa/fa male rats; [3]): -43%

More lines, now with the values behind:

Structure (SMILES): O=C(O)CN1CCC(N2C(=O)S/C(=C\c3ccc4c(cnn4Cc4ccc(Cl)cc4C(F)(F)F)c3)C2=O)CC1 [Compound 146, {4-[(5Z)-5-({1-[4-Chloro-2-(trifluoromethyl)benzyl]-1H-indazol-5-yl}methylidene)-2,4-dioxo-1,3-thiazolidin-3-yl]piperidin-1-yl}acetic acid]
change in vivo at 10 mg/kg (Zucker fa/fa male rats; [2]): -26% | change in vivo at 10 mg/kg (Zucker fa/fa male rats; [3]): -14% | pEC50 [1]: 7.80

Structure (SMILES): O=C1S/C(=C\c2ccc3c(cnn3Cc3ccc(Cl)cc3C(F)(F)F)c2)C(=O)N1C1CCN(CCO)CC1 [Compound 148, (5Z)-5-({1-[4-Chloro-2-(trifluoromethyl)benzyl]-1H-indazol-5-yl}methylidene)-3-[1-(2-hydroxyethyl)piperidin-4-yl]-1,3-thiazolidine-2,4-dione]
change in vivo at 10 mg/kg (Zucker fa/fa male rats; [2]): -77% | change in vivo at 10 mg/kg (Zucker fa/fa male rats; [3]): -40% | pEC50 [1]: 7.82

Structure (SMILES): O=C1S/C(=C\c2ccc3c(cnn3Cc3ccc(Cl)cc3C(F)(F)F)c2)C(=O)N1C[C@H]1COCCN1 [Compound 170, (5Z)-5-({1-[4-Chloro-2-(trifluoromethyl)benzyl]-1H-indazol-5-yl}methylidene)-3-[(3S)-morpholin-3-ylmethyl]-1,3-thiazolidine-2,4-dione]
change in vivo at 10 mg/kg (Zucker fa/fa male rats; [2]): -52% | change in vivo at 10 mg/kg (Zucker fa/fa male rats; [3]): -61% | pEC50 [1]: 7.82

Structure (SMILES): O=C1S/C(=C\c2ccc3c(cnn3Cc3ccc(Cl)cc3C(F)(F)F)c2)C(=O)N1C[C@H]1CN2CCC[C@H]2CO1 [Compound 202, (5Z)-5-({1-[4-Chloro-2-(trifluoromethyl)benzyl]-1H-indazol-5-yl}methylidene)-3-[(3R,8aS)-hexahydro-1H-pyrrolo[2,1-c] [1,4]oxazin-3-ylmethyl]-1,3-thiazolidine-2,4-dione]
change in vivo at 10 mg/kg (Zucker fa/fa male rats; [2]): -3% | change in vivo at 10 mg/kg (Zucker fa/fa male rats; [3]): -26% | pEC50 [1]: 7.46

Structure (SMILES): O=C(O)CN1C(=O)S/C(=C\c2ccc3c(c2)nnn3Cc2ccc(Cl)cc2C(F)(F)F)C1=O [Compound 260, [(5Z)-5-({1-[4-Chloro-2-(trifluoromethyl)benzyl]-1H-benzotriazol-5-yl}methylidene)-2,4-dioxo-1,3-thiazolidin-3-yl]acetic acid]
change in vivo at 10 mg/kg (Zucker fa/fa male rats; [2]): -50% | change in vivo at 10 mg/kg (Zucker fa/fa male rats; [3]): -23% | pEC50 [1]: 7.39

Structure (SMILES): O=C(O)CN1C(=O)S/C(=C\c2ccc3c(c2)c(Cl)nn3Cc2ccc(Cl)cc2C(F)(F)F)C1=O [Compound 287, [(5Z)-5-({1-[4-Chloro-2-(trifluoromethyl)benzyl]-3-chloro-1H-indazol-5-yl}methylidene)-2,4-dioxo-1,3-thiazolidin-3-yl]acetic acid]
change in vivo at 10 mg/kg (Zucker fa/fa male rats; [2]): -53% | change in vivo at 10 mg/kg (Zucker fa/fa male rats; [3]): -36% | pEC50 [1]: 7.66

Structure (SMILES): CN1CC[C@@H](N2C(=O)S/C(=C\c3ccc4c(cnn4Cc4ccc(Cl)cc4C(F)(F)F)c3)C2=O)[C@H](F)C1 [Compound 383, (5Z)-5-({1-[4-Chloro-2-(trifluoromethyl)benzyl]-1H-indazol-5-yl}methylidene)-3-[(3R,4R)-3-fluoro-1-methylpiperidin-4-yl]-1,3-thiazolidine-2,4-dione]
change in vivo at 10 mg/kg (Zucker fa/fa male rats; [2]): -67% | change in vivo at 10 mg/kg (Zucker fa/fa male rats; [3]): -68% | pEC50 [1]: 7.64

Structure (SMILES): CN1CC[C@H](N2C(=O)S/C(=C\c3ccc4c(cnn4Cc4ccc(Cl)cc4C(F)(F)F)c3)C2=O)[C@@H](F)C1 [Compound 384, (5Z)-5-({1-[4-Chloro-2-(trifluoromethyl)benzyl]-1H-indazol-5-yl}methylidene)-3-[(3S,4S)-3-fluoro-1-methylpiperidin-4-yl]-1,3-thiazolidine-2,4-dione]
change in vivo at 10 mg/kg (Zucker fa/fa male rats; [2]): -52% | change in vivo at 10 mg/kg (Zucker fa/fa male rats; [3]): -51% | pEC50 [1]: 7.66
